{"source": "patent US20170253607A1", "about": "“LONG-ACTING HIV PROTEASE INHIBITOR” (Shionogi & Co., Ltd., priority 2014, published 2017)"}
{"target": "HIV-1 PR (Human immunodeficiency virus type 1 group M subtype B, UniProt P04585)", "test": "HIV-protease inhibitory activity assay (FRET peptide substrate)", "type": "biochemical", "conditions": "Test Example 1", "in_short": "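HIV-1 PR (0.83 ng) preincubated with compounds 20 min at room temperature in 0.1 mol/L NaAc, 0.5 mol/L NaCl, 1 mmol/L EDTA, 1 mmol/L DTT, 0.05% Tween 20, pH 4.8. Cleavage of HiLyte Fluor 488/QXL 520 FRET peptide (2 μmol/L) read after 60 minutes at 485/535 nm; IC50 from four-parameter logistic fit.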", "units": {"IC50": "nM"}}
{"smiles": "COc1ccc(S(=O)(=O)N(CC(C)C)CC(O)C(Cc2ccc(N(C)CC3CCCC3c3sc4c(c3C(=O)O)CC(C)(C)CC4)cc2)NC(=O)OC2COC3(C)OCCC23)cc1", "note": "(stereo not drawn) [Compound I-470]", "IC50": 2.67}
{"smiles": "CC(C)CN(CC(O)C(Cc1ccc(OCc2ccccc2-c2sc3c(c2C(=O)O)CC(C)(C)CC3)cc1)NC(=O)OC1COC2(C)OCCC12)S(=O)(=O)c1ccc(N)cc1", "note": "(stereo not drawn) [Compound I-52]", "IC50": 2.34}
{"smiles": "COc1ccc(S(=O)(=O)N(CC(C)C)CC(O)C(Cc2ccc(NCc3ncccc3C(=O)Nc3sc4c(c3C(=O)O)CC(C)(C)CC4)cc2)NC(=O)OC2COC3(C)OCCC23)cc1", "note": "(stereo not drawn) [Compound I-687]", "IC50": 2.48}
{"smiles": "COc1ccc(S(=O)(=O)N(CC(C)C)CC(O)C(Cc2ccc(NCc3ccccc3-c3ccc4c(c3C(=O)O)CC(C)(C)CC4)cc2)NC(=O)OC2COC3(C)OCCC23)cc1", "note": "(stereo not drawn) [Compound I-392]", "IC50": 2.4}
{"smiles": "COc1ccc(S(=O)(=O)N(CC(C)C)CC(O)C(Cc2ccc(NCC3CC(C)(C)CCC3c3sc4c(c3C(=O)O)CC(C)(C)CC4)cc2)NC(=O)OC2COC3OCCC23)cc1", "note": "(stereo not drawn) [Compound I-887]", "IC50": 2.85}
{"smiles": "CC(C)CN(CC(O)C(Cc1ccc(NCc2ccccc2-c2sc3c(c2C(=O)O)CC(C)(C)CC3)cc1)NC(=O)OC1COC2(C)OCCC12)S(=O)(=O)c1ccc2nc(O)sc2c1", "note": "(stereo not drawn) [Compound I-482]", "IC50": 2.27}
{"smiles": "COc1ccc(S(=O)(=O)N(CC(C)C)CC(O)C(Cc2ccc(OC3CN(c4ccc(-c5sc6c(c5C(=O)O)CC(C)(C)CC6)cc4)C3)cc2)NC(=O)OC2COC3(C)OCCC23)cc1", "note": "(stereo not drawn) [Compound I-361]", "IC50": 6.22}
{"smiles": "COc1ccc(S(=O)(=O)N(CC(C)C)CC(O)C(Cc2ccc(N(C)CCn3nc4c(c3C(=O)O)CC(C)(C)CC4)cc2)NC(=O)OC2COC3(C)OCCC23)cc1", "note": "(stereo not drawn) [Compound I-517]", "IC50": 2.56}
{"smiles": "COc1ccc(S(=O)(=O)N(CC(C)C)CC(O)C(Cc2ccc(OCC3CCN(c4ccccc4-c4sc5c(c4C(=O)O)CC(C)(C)CC5)C3)cc2)NC(=O)OC2COC3(C)OCCC23)cc1", "note": "(stereo not drawn) [Compound I-204]", "IC50": 2.04}
{"smiles": "COc1ccc(S(=O)(=O)N(CC(C)C)CC(O)C(Cc2ccc(NCc3ccccc3-c3c(C(=O)O)[nH]c4ccc(Cl)cc34)cc2)NC(=O)OC2COC3(C)OCCC23)cc1", "note": "(stereo not drawn) [Compound I-661]", "IC50": 2.35}
{"smiles": "COc1ccc(S(=O)(=O)N(CC(C)C)CC(O)C(Cc2ccc(OCc3ccccc3-c3ccc4c(c3)C(=O)C(c3ccc(C(F)(F)F)cc3)C4=O)cc2)NC(=O)OC2COC3(C)OCCC23)cc1", "note": "(stereo not drawn) [Compound I-71]", "IC50": 1.77}
{"smiles": "CC1(C)CCc2sc(-c3ccc(CCCN(CC(O)C(Cc4ccccc4)NC(=O)OC4COC5(C)OCCC45)S(=O)(=O)c4ccc5ncsc5c4)cc3)c(C(=O)O)c2C1", "note": "(stereo not drawn) [Compound I-164]", "IC50": 2.07}
{"smiles": "COc1ccc(S(=O)(=O)N(CC(C)C)CC(O)C(Cc2ccc(NCc3ccccc3-c3c(C(=O)O)n(Cc4ccccc4)c4ccc(OC)cc34)cc2)NC(=O)OC2COC3(C)OCCC23)cc1", "note": "(stereo not drawn) [Compound I-635]", "IC50": 2.1}
{"smiles": "COc1ccc(S(=O)(=O)N(CC(C)C)CC(O)C(Cc2ccc(NCc3cc(-c4sc5c(c4C(=O)O)CC(C)(C)CC5)cc4ccccc34)cc2)NC(=O)OC2COC3(C)OCCC23)cc1", "note": "(stereo not drawn) [Compound I-650]", "IC50": 4.31}
{"smiles": "COc1ccc(S(=O)(=O)N(CC(C)C)CC(O)C(Cc2ccc(NCc3ccccc3-c3ccc4cc(C(=O)O)[nH]c4c3)cc2)NC(=O)OC2COC3(C)OCCC23)cc1", "note": "(stereo not drawn) [Compound I-503]", "IC50": 1.68}
{"smiles": "COc1ccc(S(=O)(=O)N(CC(C)C)CC(O)C(Cc2ccc(OC3CCN(C(=O)Nc4ccc(Cl)cc4-c4sc5c(c4C(=O)O)CC(C)(C)CC5)C3)cc2)NC(=O)OC2COC3(C)OCCC23)cc1", "note": "(stereo not drawn) [Compound I-244]", "IC50": 2.01}
{"smiles": "COc1ccc(S(=O)(=O)N(CC(C)C)CC(O)C(Cc2ccc(N(C)Cc3ccccc3NC(=O)c3sc4c(c3C(=O)O)CC(C)(C)CC4)cc2)NC(=O)OC2COC3(C)OCCC23)cc1", "note": "(stereo not drawn) [Compound I-587]", "IC50": 1.71}
{"smiles": "COc1ccc(S(=O)(=O)N(CC(C)C)CC(O)C(Cc2ccc(NCc3ccc(OCC(=O)O)cc3)cc2)NC(=O)OC2COC3(C)OCCC23)cc1", "note": "(stereo not drawn) [Compound I-321]", "IC50": 1.9}
{"smiles": "COc1ccc(S(=O)(=O)N(CC(C)C)CC(O)C(Cc2ccc(NCc3cccc(-c4sc5c(c4C(=O)O)CC(C)(C)CC5)n3)cc2)NC(=O)OC2COC3(C)OCCC23)cc1", "note": "(stereo not drawn) [Compound I-283]", "IC50": 2.28}
{"smiles": "COc1ccc(S(=O)(=O)N(CC(C)C)CC(O)C(Cc2ccc(NCc3cccc(C)c3C(=O)Nc3sc4c(c3C(=O)O)CC(C)(C)CC4)cc2)NC(=O)OC2COC3(C)OCCC23)cc1", "note": "(stereo not drawn) [Compound I-718]", "IC50": 3.97}
{"smiles": "CC(C)CN(CC(O)C(Cc1ccc(NCc2ccccc2C(=O)Nc2sc3c(c2C(=O)O)CC(C)(C)CC3)cc1)NC(=O)OC1COC2OCCC12)S(=O)(=O)c1ccc2ncsc2c1", "note": "(stereo not drawn) [Compound I-855]", "IC50": 2.66}
{"smiles": "COc1ccc(S(=O)(=O)N(CC(C)C)CC(O)C(Cc2ccc(NCC3CCCC3c3sc4c(c3C(=O)O)CC(C)(C)CC4)cc2)NC(=O)OC2COC3(C)OCCC23)cc1", "note": "(stereo not drawn) [Compound I-670]", "IC50": 2.67}
{"smiles": "COc1ccc(S(=O)(=O)N(CC(C)C)CC(O)C(Cc2ccc(NCc3ccccc3-c3c(C(=O)O)[nH]c4cc(Cl)cc(Cl)c34)cc2)NC(=O)OC2COC3(C)OCCC23)cc1", "note": "(stereo not drawn) [Compound I-633]", "IC50": 2.48}
{"smiles": "COc1ccc(S(=O)(=O)N(CC(C)C)CC(O)C(Cc2ccc(NC(=O)Nc3ccccc3-c3sc4c(c3C(=O)O)CC(C)(C)CC4)cc2)NC(=O)OC2COC3(C)OCCC23)cc1", "note": "(stereo not drawn) [Compound I-270]", "IC50": 3.38}
{"smiles": "COc1ccc(S(=O)(=O)N(CC(C)C)CC(O)C(Cc2ccc(NCC3(c4ccc(-c5sc6c(c5C(=O)O)CC(C)(C)CC6)cc4)CCCC3)cc2)NC(=O)OC2COC3(C)OCCC23)cc1", "note": "(stereo not drawn) [Compound I-340]", "IC50": 5.6}
{"smiles": "COc1ccc(S(=O)(=O)N(CC(C)C)CC(O)C(Cc2ccc(NCc3cccc(-c4sc5c(c4C(=O)O)CC(C)(C)CC5)c3F)cc2)NC(=O)OC2COC3(C)OCCC23)cc1", "note": "(stereo not drawn) [Compound I-543]", "IC50": 2.14}
{"smiles": "COc1ccc(S(=O)(=O)N(CC(C)C)CC(O)C(Cc2ccc(NCc3nc(N4CCCCC4)sc3-c3sc4c(c3C(=O)O)CC(C)(C)CC4)cc2)NC(=O)OC2COC3(C)OCCC23)cc1", "note": "(stereo not drawn) [Compound I-737]", "IC50": 1.99}
{"smiles": "COc1ccc(S(=O)(=O)N(CC(C)C)CC(O)C(Cc2ccc(OCc3ccccc3-c3oc4c(c3C(=O)O)CCCC4)cc2)NC(=O)OC2COC3(C)OCCC23)cc1", "note": "(stereo not drawn) [Compound I-130]", "IC50": 1.12}
{"smiles": "COc1ccc(S(=O)(=O)N(CC(C)C)CC(O)C(Cc2ccc(N(C)Cc3cocc3-c3sc4c(c3C(=O)O)CC(C)(C)CC4)cc2)NC(=O)OC2COC3(C)OCCC23)cc1", "note": "(stereo not drawn) [Compound I-570]", "IC50": 1.87}
{"smiles": "COc1ccc(S(=O)(=O)N(CC(C)C)CC(O)C(Cc2ccc(N3CCC(Oc4cccc(-c5sc6c(c5C(=O)O)CC(C)(C)CC6)c4C)C3)cc2)NC(=O)OC2COC3(C)OCCC23)cc1", "note": "(stereo not drawn) [Compound I-597]", "IC50": 7.37}
{"smiles": "COc1ccc(S(=O)(=O)N(CC(C)C)CC(O)C(Cc2ccc(NCc3cc(-c4sc5c(c4C(=O)O)CC(C)(C)CC5)ccc3F)cc2)NC(=O)OC2COC3(C)OCCC23)cc1", "note": "(stereo not drawn) [Compound I-280]", "IC50": 3.24}
{"smiles": "COc1ccc(S(=O)(=O)N(CC(C)C)CC(O)C(Cc2ccc(N3Cc4ccc(-c5sc6c(c5C(=O)O)CC(C)(C)CC6)cc4C3)cc2)NC(=O)OC2COC3(C)OCCC23)cc1", "note": "(stereo not drawn) [Compound I-222]", "IC50": 2.9}
{"smiles": "COc1ccc(S(=O)(=O)N(CC(C)C)CC(O)C(Cc2ccc(N3CCC(c4ccc(-c5sc6c(c5C(=O)O)CC(C)(C)CC6)cc4)C3)cc2)NC(=O)OC2COC3(C)OCCC23)cc1", "note": "(stereo not drawn) [Compound I-577]", "IC50": 6.47}
{"smiles": "COc1ccc(S(=O)(=O)N(CC(C)C)CC(O)C(Cc2ccc(OCC3=C(c4sc5c(c4C(=O)O)CC(C)(C)CC5)COC3)cc2)NC(=O)OC2COC3(C)OCCC23)cc1", "note": "(stereo not drawn) [Compound I-385]", "IC50": 1.25}
{"smiles": "COc1ccc(S(=O)(=O)N(CC(C)C)CC(O)C(Cc2ccc(N(C)C3CCc4c(-c5sc6c(c5C(=O)O)CC(C)(C)CC6)cccc43)cc2)NC(=O)OC2COC3(C)OCCC23)cc1", "note": "(stereo not drawn) [Compound I-710]", "IC50": 4.26}
{"smiles": "COc1ccc(S(=O)(=O)N(CC(C)C)CC(O)C(Cc2ccc(OCC3CCCN(c4ccc(C#N)cc4-c4sc5c(c4C(=O)O)CC(C)(C)CC5)C3)cc2)NC(=O)OC2COC3(C)OCCC23)cc1", "note": "(stereo not drawn) [Compound I-327]", "IC50": 10.4}
{"smiles": "COc1ccc(S(=O)(=O)N(CC(C)C)CC(O)C(Cc2ccc(NCc3ccccc3-c3cnc(-c4sc5c(c4C(=O)O)CC(C)(C)CC5)nc3)cc2)NC(=O)OC2COC3(C)OCCC23)cc1", "note": "(stereo not drawn) [Compound I-712]", "IC50": 2.02}
{"smiles": "COc1ccc(S(=O)(=O)N(CC(C)C)CC(O)C(Cc2ccc(OCc3nccnc3-c3sc4c(c3C(=O)O)CC(C)(C)CC4)cc2)NC(=O)OC2COC3(C)OCCC23)cc1", "note": "(stereo not drawn) [Compound I-187]", "IC50": 2.21}
{"smiles": "COc1ccc(S(=O)(=O)N(CC(C)C)CC(O)C(Cc2ccc(NCc3ccc(O)cc3-c3sc4c(c3C(=O)O)CC(C)(C)CC4)cc2)NC(=O)OC2COC3(C)OCCC23)cc1", "note": "(stereo not drawn) [Compound I-548]", "IC50": 1.49}
{"smiles": "COc1ccc(S(=O)(=O)N(CC(C)C)CC(O)C(Cc2ccc(OC3CCC(c4sc5c(c4C(=O)O)CC(C)(C)CC5)CC3)cc2)NC(=O)OC2COC3(C)OCCC23)cc1", "note": "(stereo not drawn) [Compound I-203]", "IC50": 5.02}
{"smiles": "CC1(C)CCc2sc(-c3ccc(C(F)(F)F)cc3CNc3ccc(CC(NC(=O)OC4COC5OCCC45)C(O)CN(CC4CCCC4)S(=O)(=O)c4ccc5ncsc5c4)cc3)c(C(=O)O)c2C1", "note": "(stereo not drawn) [Compound I-873]", "IC50": 8.43}
{"smiles": "COc1ccc(S(=O)(=O)N(CC(C)C)CC(O)C(Cc2ccc(NCc3c(F)cccc3C(=O)Nc3sc4c(c3C(=O)O)CC(C)(C)CC4)cc2)NC(=O)OC2COC3(C)OCCC23)cc1", "note": "(stereo not drawn) [Compound I-748]", "IC50": 2.39}
{"smiles": "COc1ccc(S(=O)(=O)N(CC(C)C)CC(O)C(Cc2ccc(NCc3ccc(Oc4ccccc4)cc3-c3sc4c(c3C(=O)O)CC(C)(C)CC4)cc2)NC(=O)OC2COC3(C)OCCC23)cc1", "note": "(stereo not drawn) [Compound I-695]", "IC50": 4.07}
{"smiles": "COc1ccc(S(=O)(=O)N(CC(C)C)CC(O)C(Cc2ccc(NCc3cc(C(F)(F)F)ccc3-c3sc4c(c3C(=O)O)CC(C)(C)CC4)cc2)NC(=O)OC2COC3OCCC23)cc1", "note": "(stereo not drawn) [Compound I-868]", "IC50": 4.3}
{"smiles": "COc1ccc(S(=O)(=O)N(CC(C)C)CC(O)C(Cc2ccc(N(C)CC3=C(c4sc5c(c4C(=O)O)CC(C)(C)CC5)CCC(F)(F)C3)cc2)NC(=O)OC2COC3OCCC23)cc1", "note": "(stereo not drawn) [Compound I-881]", "IC50": 5.89}
